Source: patent USRE38723E1, “Haloalkyl derivatives of reporter molecules used to analyze metabolic activity in cells” (Molecular Probes, Inc., priority 1991, dated 2005)

Experiments:
[1] = test system: lacZ positive CRE BAG 2 cells; test: Cellular retention after loading by hypoosmotic shock (Example 12); format: cell-based; conditions: after incubation for 4 hours, 2 mM
Description: 5-Chloromethylfluorescein di-β-D-galactoside (CMFDG) (Example 1) is dissolved in DMSO to get 20 mM stock solution. A 40 mM stock solution offluorescein di-β-D-galaetoside (FDG) (Molecular Probes) is also made in DMSO as a control. The stock solutions are kept sealed in brown reagent bottles and stored at −20° C.
• (A) FCS-PBS Solution: Phosphate buffered saline (GIBCO), 4% fetal calf serum, 10 mM HEPES, pH 7.2 • (B) Staining Solution: CMFDG: 200 μL of stock solution is diluted with distilled water to 4 mL to get a 1 mM staining solution. FDG: 400 μL of stock solution is diluted to 4 mL with distilled water to get a 4 mM staining solution. 4. Staining and Examination of Cells:
Cells grown on coverslips are transferred to a Petri dish containing 3 mL of FCS-PBS solution and then incubated at 37° C. for 10 minutes. 3 mL of prewarmed (37° C.) 1 mM CMFDG staining solution is added to give a final dye concentration of 0.5 mM The solutions are mixed rapidly. The cells are incubated at 37° C. for exactly one minute. To stop the loading, the cells are transferred to a 1.8 mL of ice-cold FCS-PBS solution. FDG is loaded into cells by using the same procedure except that the final dye concentrations is 2 mM. Cells are then incubated under normal culture conditions to examine the dye retention. Cells are examined without washing at the desired time for their fluorescence under a Zeiss microscope equipped with a FITC filter set (EX 485 nm/EM 530 nm).

[2] = test system: CRE-BAG2 cells expressing β-galactosidase; test: Cellular retention of coumarin galactopyranoside substrates (Example 17); format: cell-based; conditions: 10 μM, hypotonic shock loading, 37° C., excitation 360±20 nm, emission >400 nm
Description: CRE-BAG2 cells are prepared as described in Example 15.
Staining solutions of 4-methylcoumarin β-D-galactopyranoside, 4-chloromethylcoumarin β-D-galactopyranoside and 4-trifluoromethylcoumarin β-D-galactopyranoside, respectively, are prepared that are 10 μM in concentration. Each galactopyranoside substrate is loaded into CRE-BAG2 cells expressing β-galactosidase using brief hypotonic shock for less than five minutes. Cells are then washed free of extracellular substrate and incubated for three hours in fresh culture medium at 37° C. Each cell sample is then illuminated at 360±20 nm, and the fluorescence is observed at >400 nm. Fluorescence intensity data is acquired using a cooled CCD camera and subsequently stored in digital format.

NIH/3T3 cells = test: Cellular retention of rhodamine 110 peptidase substrates (Example 16); format: cell-based; conditions: 25 μM; for leakage of enzyme reaction product after staining: 30 minutes at 37° C.; for fluorescence after washing and several hours in fresh media: fluorescein long-pass filter set
Description: NIH/3T3 cells are prepared as described in Example 15.
Staining solutions of bis-(L-leucine)-rhodamine 110 and L-leucine-rhodamine 110-p-chloromethylbenzamide (Example 9), respectively, are prepared that are 25 μM in concentration. Equivalent NIH/3T3 cells are incubated with the same amount of peptidase substrate for thirty (30) minutes at 37° C. in Modified Tyrode's buffered saline (135 mM NaCl, 5 mM KCl, 1 mM MgCl2, 1.8 mM CaCl2, 10 mM NaHEPES, 5.6 mM glucose, pH 7.5, plus 0.1% bovine serum albumin).
The cells are washed and placed in fresh media for several hours.

lacZ positive cells = test: Dye retention after paraformaldehyde fixation (Example 11); format: cell-based; conditions: 3.7% paraformaldehyde fixation, Hoechst filter set
Description: The cells grown on coverslips and incubated with either Cl-MUG or MUG are immersed in 3.7% paraformaldehyde in 80 mM Pipes buffer, pH 6.5 for 4 minutes to allow the paraformaldehyde to penetrate the cells. The cells are then transferred to 3.7% paraformaldehyde in PBS. After 6 minutes, the cells are washed three times with PBS buffer for ten minutes. The coverslips are put on the slides and sealed.
The fixed cells are examined for their fluorescence under a Zeiss microscope equipped with a Hoechst filter set.

[3] = test system: lacZ positive CRE BAG 2 cells; test: Staining of living lacZ positive cells with galactosidase substrate (Example 11); format: cell-based
Description: (§1) NIH/3T3 cells (lacZ negative) and CRE BAG 2 cells (3T3 cells transformed with a retrovirus containing lacZ gene) are employed for cellular assays. Both cell lines can be obtained from American Type Culture Collection Co., Rockville, Md. The cells are grown in a humidified atmosphere of 5% CO2 in Dulbecco's modified Eagle's medium supplemented with 10% calf serum, 50 μg/mL gentamicin, 300 μg/mL L-glutamine and 10 mM HEPES pH 7.4.
(§2) 4-Chloromethylumbelliferyl β-D-galactoside (Cl-MUG) (Example 3) is dissolved in DMSO to get a 10 mM stock solution. A 10 mM stock solution of 4-methylumbelliferyl β-D-galactoside (MUG) (Molecular Probes) is also made in DMSO as a control. The stock solutions are kept sealed in brown reagent bottles and stored at −20° C.
(§3) 100 μL of stock solution is added to 10 mL of fresh culture medium to prepare a “working medium” containing 100 μM Cl-MUG. This medium is filter-sterilized by passing through an Acrodisc™ filter (0.45 μm pore size). A working medium containing MUG is prepared in the same way.
(§4) Cells grown on coverslips are transferred to the working medium and incubated at 37° C. under normal conditions. Cells are examined at the desired time for their fluorescence under a Zeiss microscope equipped with a Hoechst filter set (EX […]/EM 480 nm). […] After 6 hours continuous incubation, the fluorescence intensity of stained CRE BAG 2 cells reaches its highest level.

[4] = test system: NIH/3T3 cells (lacZ negative); test: Staining of living lacZ negative cells with galactosidase substrate (Example 11); format: cell-based; conditions: 100 μM in working medium, 60 minutes at 37° C., washed with fresh medium
Description: as §1, §2, §3, §4

[5] = test system: NIH/3T3 cells and CRE BAG 2 cells; test: Cytotoxicity of substrate in working medium (Example 11); format: cell-based
Description: as §1, §3
Fluorescence can be detected in the cells for at least 24 hours following washing of the cells with fresh medium.

[6] = test system: Glutathione Transferase from Equine Liver; test: Glutathione transferase activity in vitro (Example 14); format: biochemical; conditions: room temperature, with GSH
Description: Activity of glutathione transferase in vitro can be assayed essentially by the method of Grants and Matsumura (INSECT PHYSIOL. 18 (6), 615 (1988)). • 1) Reagents: The stock reagents required are: 1) 5-Chloromethylfluorescein (CMF) substrate (Example 1) 10 mg/mL in DMF, diluted 1:10 in reaction buffer to 1 mg/mL; 2). Reaction buffer 100 mM potassium phosphate, 15% glycerol pH 6.8; 3). Glutathione (GSH) 155 mM in 20 mM TRIS, 2 mM DTT, 15% glycerol pH 7.8; 4). Glutathione Transferase from Equine Liver (Sigma #G 6511) 1.0 mg/mL in reaction buffer. • 2) Assay. The reaction mixture consists of 0.7 mL reaction buffer, 0.1 mL GSH, 0.1 mL substrate and 0.1 mL enzyme. The background is measured and subtracted by using 0.1 mL of the reaction buffer instead of the enzyme. Enzymatic activity can be detected at less than 5 minutes at room temperature. Product formation can be detected by separation of the polar product from the less polar substrate by a suitable means such as thin layer chromatography or high performance liquid chromatography. For instance, product accumulation can be detected by thin layer chromatography using A) 15:85 methanol:chloroform or B) 2:5:15 NH4OH:isopropyl alcohol:methanol. […] Alternatively the fluorescence of the product is determined using a fluorometer versus a fluorescein standard with excitation at 492 and emission measured at 515 nm. […]

[7] = 100 μM working medium for 24 hours

O=C1OC2(c3ccc(O[C@@H]4O[C@H](CO)[C@H](O)[C@H](O)[C@H]4O)cc3Oc3cc(O[C@@H]4O[C@H](CO)[C@H](O)[C@H](O)[C@H]4O)ccc32)c2ccccc21 [FDG, fluorescein di-β-D-galaetoside, reference compound]
fluorescence of stained cells after 4 hours [1]: very dim with high background fluorescence in the medium

O=c1cc(C(F)(F)F)c2ccc(O[C@@H]3O[C@H](CO)[C@H](O)[C@H](O)[C@H]3O)cc2o1 [4-trifluoromethylcoumarin β-D-galactopyranoside]
fluorescence intensity after three hours in fresh culture medium [2]: low fluorescent intensity

CC(C)CC(N)C(=O)Nc1ccc2c(c1)Oc1cc(NC(=O)C(N)CC(C)C)ccc1C21OC(=O)c2ccccc21 [bis-(L-leucine)-rhodamine 110, reference compound]
leakage of enzyme reaction product after staining (NIH/3T3 cells): substantial leakage | fluorescence after washing and several hours in fresh media (NIH/3T3 cells): no fluorescent signal

Cc1cc(=O)oc2cc(O[C@@H]3O[C@H](CO)[C@H](O)[C@H](O)[C@H]3O)ccc12 [MUG, 4-methylumbelliferyl β-D-galactoside, reference compound]
fluorescence of fixed cells (lacZ positive cells): barely fluorescent | fluorescence intensity after three hours in fresh culture medium [2]: low fluorescent intensity

O=c1cc(CCl)c2ccc(O[C@@H]3O[C@H](CO)[C@H](O)[C@H](O)[C@H]3O)cc2o1 [Cl-MUG, 7-(β-D-galactopyranosyloxy)-4-chloromethylcoumarin]
fluorescence of cells under microscope ([3]; 100 μM in working medium, 60 minutes at 37° C., washed with fresh medium): fluorescence is observed in the cytoplasmic area | continuous incubation time at which fluorescence intensity reaches its highest level ([3]; 100 μM working medium): 6 h | fluorescence of cells under microscope [4]: not in 3T3 cells | cell morphology [5, 7]: morphologically normal | population doubling time versus cells in substrate-free medium [5, 7]: same population doubling time | time fluorescence can be detected in the cells following washing with fresh medium ([5]; after incubation in working medium): at least 24 hours | cytotoxicity ([5]; either type of cell): no cytotoxicity | subculture after preincubation ([5]; preincubated in working medium for 6 hours, subcultured in fresh medium): second generation of cells that is normal | fluorescence of fixed cells (lacZ positive cells): still brightly fluorescent | fluorescence intensity after three hours in fresh culture medium [2]: brightly fluorescent

O=C1OC2(c3ccc(O)cc3Oc3cc(O)ccc32)c2ccc(CCl)cc21 [CMF, 5-chloromethylfluorescein]
time at which enzymatic activity can be detected [6]: less than 5 minutes

CC(C)CC(N)C(=O)Nc1ccc2c(c1)Oc1cc(NC(=O)c3ccc(CCl)cc3)ccc1C21OC(=O)c2ccccc21 [L-leucine-rhodamine 110-p-chloromethylbenzamide]
leakage of enzyme reaction product after staining (NIH/3T3 cells): significantly less leakage | fluorescence after washing and several hours in fresh media (NIH/3T3 cells): bright, well-defined staining pattern | melting point: 275 °C (dec.)
